The subject of the data set is sweetpotato whitefly (Bemisia tabaci (Gennadius)). Kind of data set: Test D: control of sweetpotato whitefly through contact and/or systemic means, sprayed cotton plant infested with eggs. Conditions: sprayed at 50 ppm, assessed after 13 days at 28° C. The data set is classed as in vivo. Here is the method: Test compounds were formulated using a solution containing 10% acetone, 90% water and 300 ppm X-77® Spreader Lo-Foam Formula non-ionic surfactant containing alkylarylpolyoxyethylene, free fatty acids, glycols and isopropanol (Loveland Industries, Inc. Greeley, Colo., USA). The formulated compounds were applied in 1 mL of liquid through a SUJ2 atomizer nozzle with ⅛ JJ custom body (Spraying Systems Co. Wheaton, Ill., USA) positioned 1.27 cm (0.5 inches) above the top of each test unit. Test compounds were sprayed at the rates indicated, and each test was replicated three times.
For evaluating control of the sweetpotato whitefly (Bemisia tabaci (Gennadius)) through contact and/or systemic means, the test unit consisted of a small open container with a 12-14-day-old cotton plant inside. Prior to the spray application, both cotyledons were removed from the plant, leaving one true leaf for the assay. Adult whiteflies were allowed to lay eggs on the plant and then were removed from the test unit. Cotton plants infested with at least 15 eggs were submitted to the test for spraying.
Test compounds were formulated and sprayed at 250 and/or 50 ppm. After spraying, the test units were allowed to dry for 1 hour. […] Each test unit was then visually assessed for insect mortality.

On to `CN(C)C(=O)C(C)(C)NC(=O)c1csc2nc(-c3cncc(F)c3)cn12` [Compound 14], for which the mortality result was “at least 80%”.

For the origin of these results see US10800794B2, “Heterocycle-substituted bicyclic azole pesticides” (priority 2015, dated 2020).
